Where a name gives a salt, the structure may show the parent alone.
Target: T1, human 5-HT4(a) (Homo sapiens, UniProt Q13639)
T1 construct: host or cells: GeneBlAzer HTR4-CRE-bla CHO-K1 cells
Test: Evaluation of agonistic activity in CHO-K1 cells expressing human 5-HT4(a) (GeneBlAzer HTR4-CRE-bla CHO-K1, beta-lactamase reporter)
Assay type: cell-based
Conditions: CHO-K1 cells stably expressing human 5-HT4(a)
Summary of the method: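 Agonism read as CRE-driven β-lactamase activity: emission ratio 465/535 nm (excitation 410 nm) after 2 h substrate loading. Preceded by 5 h compound treatment, 8 concentrations, 1% DMSO in the added solution, of overnight-plated reporter CHO-K1 cells; EC50 by non-linear regression.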

T1 sequence (Q13639 1-387 isoform Q13639-2): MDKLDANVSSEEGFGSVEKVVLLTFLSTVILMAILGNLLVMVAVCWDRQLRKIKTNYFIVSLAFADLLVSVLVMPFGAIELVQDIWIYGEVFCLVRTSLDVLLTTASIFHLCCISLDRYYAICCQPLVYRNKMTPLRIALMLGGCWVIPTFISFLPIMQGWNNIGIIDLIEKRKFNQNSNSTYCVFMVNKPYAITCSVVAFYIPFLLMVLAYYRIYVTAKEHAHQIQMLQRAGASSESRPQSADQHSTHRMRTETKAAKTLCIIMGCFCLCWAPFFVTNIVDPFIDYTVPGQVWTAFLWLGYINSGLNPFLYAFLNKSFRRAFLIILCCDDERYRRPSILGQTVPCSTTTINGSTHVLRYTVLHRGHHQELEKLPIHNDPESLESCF

Row | SMILES | EC50 [nM]
1 | CCCCc1cc(N2CC[C@H](NC)C2)nc(Nc2ccc(N)c([N+](=O)[O-])c2)n1 [Example 338] | 0.0032
2 | CCCc1cc(N2CCC(NC(C)=O)C2)nc(Nc2ccc(N)c([N+](=O)[O-])c2)n1 (centres unmarked) [Example 293] | 0.0043
3 | CCCc1cc(N2CC[C@H](NC(C)=O)C2)nc(Nc2ccc(C)c(OC)c2)n1 [Example 279] | 0.078
4 | CCCCc1cc(N2CC[C@H](NC)C2)nc(Nc2cc(N)cc(C(F)(F)F)c2)n1 [Example 452] | 0.0033
5 | CCCc1cc(N2CCC(NC(C)=O)C2)nc(Nc2cccc(Cl)c2)n1 (centres unmarked) [Example 302] | 0.42
6 | CCCc1cc(N2CC[C@H](N)C2)nc(Nc2ccc(F)c(C(F)(F)F)c2)n1 [Example 357, (S)-4-(3-aminopyrrolidin-1-yl)-N-[4-fluoro-3-(trifluoromethyl)phenyl]-6-propylpyrimidin-2-amine dihydrochloride] | 0.0065
7 | CCCc1cc(N2CCC[C@H]2CNCc2ccc(F)cc2)nc(Nc2cccc(C#N)c2)n1 [Example 405] | 0.399
8 | CCCc1cc(N2CC[C@H](NC)C2)nc(Nc2cc(N)cc(C(F)(F)F)c2)n1 [Example 487] | 0.0021
9 | CCCc1cc(N2CC[C@H](NC(=O)Cc3cccnc3)C2)nc(Nc2cccc(C#N)c2)n1 [Example 77, (S)-N-{1-[2-(3-cyanophenylamino)-6-propylpyrimidin-4-yl]pyrrolidin-3-yl}-2-(pyridin-3-yl)acetamide] | 0.15
10 | CCCCc1cc(N2CC[C@H](NCC)C2)nc(Nc2cc(N)cc(C(F)(F)F)c2)n1 [Example 466] | 0.0058
11 | CCCCc1cc(N2CC[C@H](NCC3CC3)C2)nc(Nc2ccc(C)c(C#N)c2)n1 [Example 240] | 0.0025
12 | CCCc1cc(N2CC[C@H](CN(CC)CC)C2)nc(Nc2cccc(C#N)c2)n1 [Example 434] | 0.111
13 | CCCc1cc(N2CC[C@H](NC(=O)NCC)C2)nc(Nc2ccc(C)c(C#N)c2)n1 [Example 433] | 0.055
14 | CCCc1cc(N2CC[C@H](NCCOCc3ccccc3)C2)nc(Nc2cccc(C#N)c2)n1 [Example 145, (S)-3-(4-{3-[2-(benzyloxy)ethylamino]pyrrolidin-1-yl}-6-propylpyrimidin-2-ylamino)benzonitrile] | 0.046
15 | CCCCc1cc(N2CC[C@H](NC)C2)nc(Nc2ccc(F)c(C(F)(F)F)c2)n1 [Example 454] | 0.014
16 | CCCc1cc(N2CCC[C@H]2COC)nc(Nc2ccc(Cl)c([N+](=O)[O-])c2)n1 [Example 33, (S)-N-(4-chloro-3-nitrophenyl)-4-[2-(methoxymethyl)pyrrolidin-1-yl]-6-propyl pyrimidin-2-amine] | 0.059
17 | CCCc1cc(N2CC[C@H](NC(=O)Cc3ccccc3)C2)nc(Nc2ccc(C)c(C#N)c2)n1 [Example 426] | 0.079
18 | CCCc1cc(N2CC[C@H](N)C2)nc(Nc2ccc(F)c([N+](=O)[O-])c2)n1 [Example 358, (S)-4-(3-aminopyrrolidin-1-yl)-N-(4-fluoro-3-nitrophenyl)-6-propylpyrimidin-2-amine dihydrochloride] | 0.014
19 | CCCc1cc(N2CC[C@H](N)C2)nc(Nc2cccc([N+](=O)[O-])c2)n1 [Example 350, (S)-4-(3-aminopyrrolidin-1-yl)-N-(3-nitrophenyl)-6-propylpyrimidin-2-amine dihydrochloride] | 0.012
20 | CCCc1cc(N2CC[C@H](NC3CCCCC3)C2)nc(Nc2cccc(C#N)c2)n1 [Example 135, (S)-3-{4-[3-(cyclohexylamino)pyrrolidin-1-yl]-6-propylpyrimidin-2-ylamino}benzonitrile] | 0.011
21 | CCCc1cc(N2CC[C@H](N)C2)nc(Nc2ccc(F)c(N)c2)n1 [Example 370, (S)—N^1-[4-(3-aminopyrrolidin-1-yl)-6-propylpyrimidin-2-yl]-4-fluorobenzene-1,3-diamine dihydrochloride] | 0.015
22 | CCCCc1cc(N2CC[C@H](NC(C)=O)C2)nc(Nc2ccc(N)c(C#N)c2)n1 [Example 446] | 0.0077
23 | CCCc1cc(N2CC[C@H](NC(=O)CO)C2)nc(Nc2ccc(C)c(C(F)(F)F)c2)n1 [Example 481] | 0.0093

— patent publication US9890138B2, “Diaminopyrimidine derivatives and processes for the preparation thereof” (YUHAN CORPORATION, priority 2011, dated 2018)
